Test results reported in publication PMC3985639, “A widespread bacteriophage abortive infection system functions through a Type IV toxin–antitoxin mechanism” (Nucleic Acids Research, 2014).

Target: T1, AbiEii (AbiEii-His6) (Streptococcus agalactiae, UniProt Q8DZ35)
T1 construct: gene abiGII; full-length, C-terminal His6 tag kept, from pRLD56 in E. coli BL21 co-expressing AbiEi (pRLD69), Ni-NTA purified
T1 sequence (Q8DZ35 1-281): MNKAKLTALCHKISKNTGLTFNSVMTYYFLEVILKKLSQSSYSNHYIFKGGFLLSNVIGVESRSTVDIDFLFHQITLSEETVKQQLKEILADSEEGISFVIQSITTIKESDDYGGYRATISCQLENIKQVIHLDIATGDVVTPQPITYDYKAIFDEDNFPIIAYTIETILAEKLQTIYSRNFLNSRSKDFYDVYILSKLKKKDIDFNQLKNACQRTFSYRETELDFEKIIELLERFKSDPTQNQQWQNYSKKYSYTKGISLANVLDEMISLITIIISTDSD
Test: native PAGE gel shift of [α-32P]-NTP
Assay type: binding
Conditions: labelled compound; 0.65 pmol; 10 mM Tris-HCl, […] MgCl2, 50 mM KCl, pH 8.3, 37 °C, 1 h

SMILES	native PAGE gel shift of [α-32P]-NTP
Nc1nc2c(ncn2[C@@H]2O[C@H](COP(=O)(O)OP(=O)(O)OP(=O)(O)O)[C@@H](O)[C@H]2O)c(=O)[nH]1 [GTP]	Increasing AbiEii-His6 concentrations led to retardation in GTP migration, demonstrating GTP binding
Nc1ncnc2c1ncn2[C@@H]1O[C@H](COP(=O)(O)OP(=O)(O)OP(=O)(O)O)[C@@H](O)[C@H]1O [ATP]	Limited binding to ATP was also observed
